Data as given in patent publication US9512118B2, “Crystal of fused heterocyclic compound” (TAKEDA PHARMACEUTICAL COMPANY LIMITED, priority 2011, dated 2016).
In brackets after ≈: the same amount, converted by molar mass. Read-outs that look alike come from different tables or passages of the source.

What was measured:
[1] = Study of crystallization from various solvents (solubility at 55° C. and crystal form obtained); format: physicochemical; conditions: for solubility: 55 °C, organic solvent or mixture, thermodynamic from solid; for crystal form: dissolved at 55° C., cooled to 0-5° C., stirred 8 hr
Protocol: This solution was filtered through a filter with 0.22 μm pore size, and cooled to 0-5° C. with stirring. The mixture was stirred for 8 hr under cooling at 0-5° C.

[2] = room temperature
Excerpt: After stirring for one week, and after stirring for 2 weeks, the crystals of 1-ethyl-7-methyl-3-{4-[(3-methyl-3H-imidazo[4,5-b]pyridin-2-yl)oxy]phenyl}-1,3-dihydro-2H-imidazo[4,5-b]pyridin-2-one formed were collected by filtration, and the crystal form of the crystalline products was confirmed.

[3] = 80° C., 1 week, sealed glass bottle
[4] = 80° C., 2 weeks, sealed glass bottle

Question: For CCn1c(=O)n(-c2ccc(Oc3nc4cccnc4n3C)cc2)c2nccc(C)c21 [Form G, 1-ethyl-7-methyl-3-{4-[(3-methyl-3H-imidazo[4,5-b]pyridin-2-yl)oxy]phenyl}-1,3-dihydro-2H-imidazo[4,5-b]pyridin-2-one], which appearance [3] is on record?
Answer: no change

Question: And the “area percentage (%) of HPLC peak area of main form” value (“area percentage (%)” below) [3]?
Answer: 99.7%

Question: What about the crystal form [3] of the same molecule?
Answer: Form G

Question: And the appearance [4]?
Answer: no change

Question: And the “area percentage (%)” value [4]?
Answer: 99.6%

Question: And the crystal form [4]?
Answer: Form G

Question: What about the appearance (prestorage) of the same molecule?
Answer: white crystalline

Question: What about the “area percentage (%)” value (prestorage) of the same molecule?
Answer: 99.7%

Question: What about the crystal form (prestorage) of the same molecule?
Answer: Form G

Question: Which solubility ([1]; solvent 2-propanol) does the source give for CCn1c(=O)n(-c2ccc(Oc3nc4cccnc4n3C)cc2)c2nccc(C)c21 [Form A, 1-ethyl-7-methyl-3-{4-[(3-methyl-3H-imidazo[4,5-b]pyridin-2-yl)oxy]phenyl}-1,3-dihydro-2H-imidazo[4,5-b]pyridin-2-one] here?
Answer: < 2700 µg/mL

Question: And the solubility ([1]; solvent acetone)?
Answer: 6500 µg/mL (≈ 16.2 mM)

Question: What about the solubility ([1]; solvent acetonitrile) of the same molecule?
Answer: 8100 µg/mL (≈ 20.2 mM)

Question: What about the solubility ([1]; solvent chloroform) of the same molecule?
Answer: > 200000 µg/mL

Question: What about the solubility ([1]; solvent ethanol) of the same molecule?
Answer: 2600 µg/mL (≈ 6.49 mM)

Question: What about the solubility ([1]; solvent ethyl acetate) of the same molecule?
Answer: 3400 µg/mL (≈ 8.49 mM)

Question: What about the solubility ([1]; solvent methanol) of the same molecule?
Answer: 5600 µg/mL (≈ 14 mM)

Question: What about the solubility ([1]; solvent methylethylketone) of the same molecule?
Answer: 6800 µg/mL (≈ 17 mM)

Question: And the solubility ([1]; solvent tetrahydrofuran)?
Answer: 26000 µg/mL (≈ 64.9 mM)

Question: And the solubility ([1]; solvent toluene)?
Answer: 5200 µg/mL (≈ 13 mM)

Question: What about the solubility ([1]; solvent trifluoroethanol) of the same molecule?
Answer: > 200000 µg/mL

Question: And the crystal form ([1]; crystallized from 2-propanol)?
Answer: Form A

Question: And the crystal form ([1]; crystallized from acetone)?
Answer: Form A

Question: And the crystal form ([1]; crystallized from acetonitrile)?
Answer: Form B

Question: And the crystal form ([1]; crystallized from chloroform)?
Answer: Form A

Question: What about the crystal form ([1]; crystallized from ethanol) of the same molecule?
Answer: Form A

Question: What about the crystal form ([1]; crystallized from ethyl acetate) of the same molecule?
Answer: Form A

Question: And the crystal form ([1]; crystallized from methanol)?
Answer: Form A

Question: And the crystal form ([1]; crystallized from methylethylketone)?
Answer: Form A

Question: And the crystal form ([1]; crystallized from tetrahydrofuran)?
Answer: Form A

Question: What about the crystal form ([1]; crystallized from toluene) of the same molecule?
Answer: Form G

Question: What about the crystal form ([1]; crystallized from trifluoroethanol) of the same molecule?
Answer: Form D

Question: And the “crystal form 1 week later” value ([2]; suspended in 1-butanol)?
Answer: Form A

Question: And the “crystal form 2 weeks later” value ([2]; suspended in 1-butanol)?
Answer: Form A

Question: And the “crystal form 1 week later” value ([2]; suspended in acetone)?
Answer: Form G

Question: And the “crystal form 2 weeks later” value ([2]; suspended in acetone)?
Answer: Form G

Question: What about the “crystal form 1 week later” value ([2]; suspended in ethyl acetate) of the same molecule?
Answer: Form A + Form G

Question: What about the “crystal form 2 weeks later” value ([2]; suspended in ethyl acetate) of the same molecule?
Answer: Form G

Question: And the “crystal form 1 week later” value ([2]; suspended in isopropyl alcohol)?
Answer: Form A

Question: And the “crystal form 2 weeks later” value ([2]; suspended in isopropyl alcohol)?
Answer: Form A

Question: What about the “crystal form 1 week later” value ([2]; suspended in methanol) of the same molecule?
Answer: Form G

Question: What about the “crystal form 2 weeks later” value ([2]; suspended in methanol) of the same molecule?
Answer: Form G

Question: What about the “crystal form 1 week later” value ([2]; suspended in methylethylketone) of the same molecule?
Answer: Form G

Question: And the “crystal form 2 weeks later” value ([2]; suspended in methylethylketone)?
Answer: Form G

Question: And the “crystal form 1 week later” value ([2]; suspended in tetrahydrofuran)?
Answer: Form G

Question: What about the “crystal form 2 weeks later” value ([2]; suspended in tetrahydrofuran) of the same molecule?
Answer: Form G

Question: What about the “crystal form 1 week later” value ([2]; suspended in toluene) of the same molecule?
Answer: Form G

Question: What about the “crystal form 2 weeks later” value ([2]; suspended in toluene) of the same molecule?
Answer: Form G
